{"source": "patent US20170209468A1", "about": "“POLY(BETA-AMINO ESTER) CONJUGATES FOR CARTILAGE AGENT DELIVERY AND METHODS” (University College Cardiff Consultants Limited, priority 2014, published 2017)", "tested_on": "chondrocytes", "test": "Viability of chondrocytes after exposure (MTT and LDH assays)", "format": "cell-based, bovine", "details": "15 μl of DEX 4 mg/ml solution per 1 ml well, up to 3 days", "method": "The cartilage samples as described in Example 4 underwent a 1 hour predigestion stage with 0.4% w/v pronase (Sigma, UK), dissolved in 4-(2-hydroxyethyl)-1-piperazineethanesulfonic acid (HEPES)-buffered DMEM (Gibco, UK) supplemented with 50 U/50 mg/mL penicillin-streptomycin (Sigma Aldrich) and 2.5 mg/mL amphotericin B. Cartilages samples were placed in sterile eppendorfs containing the filter-sterilized enzyme solution by passage through a […] filter at a concentration of 1 ml solution for 5 cartilage extracts. The samples were incubated at 37° C. and the cartilage fragments were then washed twice with sterile PBS and digested with 1 ml each 6 cartilage sample of collagenase II (Sigma, UK) 0.1% w/v for 16 h at 37° C. Collagenase II was prepared in 4-(2-hydroxyethyl)-1-piperazineethanesulfonic acid (HEPES)-buffered DMEM (Gibco, UK) supplemented with 50 U/50 mg/mL penicillin-streptomycin (Sigma Aldrich and filter sterilised. […]\nChondrocytes viability was assessed through MTT and LDH assay kits (Sigma, UK) according to manufacturer's protocols. […]"}
{"compound": "C[C@@H]1C[C@H]2[C@@H]3CCC4=CC(=O)C=C[C@]4(C)[C@@]3(F)[C@@H](O)C[C@]2(C)[C@@]1(O)C(=O)COP(=O)(O)O", "note": "[DEX-P, dexamethasone phosphate]", "values": [{"measurement": "chondrocytes viability (MTT and LDH)", "result": "same viability"}]}
